Data taken from patent publication US20220288148A1, “METHODS FOR RELIEVING BACK PAIN WITH TERMINALIA CHEBULA COMPOSITIONS” (Natreon, Inc., priority 2021, published 2022).

Experiments:
[1] = tested on: low back pain; assay: Case reports of human subjects with low back pain (Examples 2-5); type: in vivo; conditions: before AyuFlex
Experimental: Several human subjects suffering from back pain were administered an effective amount of a T. chebula composition according to the present invention (AyuFlex®, an aqueous extract of T. chebula fruit in powdered and standardized form, orally administered in a capsule containing 500 mg of the extract). […] Subject weights ranged from 54.5 kg to 72.7 kg, and daily doses ranged from 500 mg to 2000 mg per day of AyuFlex®, which may be calculated at a dose range of about 6.88 mg AyuFlex®/kg body weight of a subject to about 36.7 mg AyuFlex®/kg body weight of a subject.
Prior to administration of AyuFlex®, the subject reported a history of suffering from chronic low back pain, described by the subject as sciatic pain, as well as from patellar tendonitis, for the past ten years. The subject indicated their belief that the low back pain was due to a very active lifestyle that included lifting heavy weights. They previously attempted to relieve the chronic low back pain with numerous rounds of physical therapy and rehab-based regimens, but was only provided with temporary relief until they resumed exercise.
The subject began oral administration of 2 (two) 500 mg AyuFlex® capsules daily to treat their low back pain.
Prior to administration of AyuFlex®, the subject reported a history of back pain described by the subject as sciatic pain, beginning when they were young. They were a gymnast for many years, and as a result injured their back. They were diagnosed with small compression fractures and disk bulges in their lower back. Throughout their teen years, the subject underwent intermittent physical therapy, and also sought treatment from a chiropractor for two years. Although the subject reported some temporary relief from these treatments, their pain was not resolved.
The subject further reported that, due to lack of exercise over the years, their sciatic pain became extremely severe. […] Within a month of the onset of these severe symptoms, the subject described having only one or two days where […] was pain-free. […] reported relying heavily on acetaminophen (Tylenol®) and ibuprofen (Advil®) to ease their pain, as they were often not able to sleep due to the sharp sciatic pain. […] Along with the sciatic pain, for a few months before beginning administration of Ayuflex®, the subject reported experiencing stiffness in […] lower back as well. […] reported needing to bend their back to walk for a few minutes after they would stand.
The subject began oral administration of Ayuflex®, taking a 500 mg capsule twice daily for about 2 months, and then recently chose to increase the dosage to 1000 mg (2 capsules) twice daily. […]

[2] = tested on: collagen-induced arthritis; conditions: mice with collagen-induced arthritis; cited from earlier work
[3] = tested on: subjects with hyperuricemia; conditions: cited from earlier work

**Q.** With `CC(=O)Nc1ccc(O)cc1` [acetaminophen] as the compound, how does the “subject-reported pain relief by prior analgesics” value (shortened to “subject-reported pain relief”) ([1]; Example 3 subject) read?
**A.** The value was “only relieved their pain for a few hours”.

**Q.** And the “subject-reported pain relief” value ([1]; Example 5 subject)?
**A.** The value was “only relieved the pain for a few hours”.

**Q.** For `O=C(O)C[C@@H]1C(=O)O[C@H]2[C@H](OC(=O)c3cc(O)c(O)c(O)c3)[C@@H](OC(=O)c3cc(O)c(O)c4c3[C@H]1[C@H](O)C(=O)O4)[C@H](OC(=O)c1cc(O)c(O)c(O)c1)O[C@@H]2COC(=O)c1cc(O)c(O)c(O)c1` [chebulinic acid], which “conclusion on anti-VEGF antiangiogenic action for inflammatory arthritis” value [2] is on record?
**A.** Its value is “safe and potent anti-VEGF antiangiogenic agent”.

**Q.** For `Cc1nc(-c2ccc(OCC(C)C)c(C#N)c2)sc1C(=O)O` [febuxostat], which “reduction in mean serum uric acid levels compared to baseline” value ([3]; as early as 4 weeks, T. bellerica 500 and 250 mg BID, febuxostat 40 mg, T. chebula 500 mg BID) is on record?
**A.** Its value is “Significant reduction”.

**Q.** What about the “serum uric acid levels, baseline” value ([3]; baseline, T. bellerica 500 mg BID, febuxostat 40 mg once daily, in mg/dL (unit assumed)) of the same compound?
**A.** The value was 8.53±0.97.

**Q.** What about the “serum uric acid levels at the end of 24 weeks” value ([3]; end of 24 weeks, T. bellerica 500 mg BID, febuxostat 40 mg once daily, in mg/dL (unit assumed)) of the same compound?
**A.** The value was 4.28±0.67.

**Q.** With `CC(C)Cc1ccc(C(C)C(=O)O)cc1` (centres unmarked) [ibuprofen] as the compound, how does the “subject-reported pain relief” value ([1]; Example 3 subject) read?
**A.** Its value is “only relieved their pain for a few hours”.

**Q.** And the “subject-reported pain relief” value ([1]; Example 5 subject)?
**A.** Its value is “only relieved the pain for a few hours”.
